Measured values taken from patent publication US20230041563A1, “N-(1,3,4-OXADIAZOL-2-YL)ARYLCARBOXAMIDES OR SALTS THEREOF, PREPARATION METHODS, HERBICIDAL COMPOSITIONS AND USES THEREOF” (priority 2018, published 2023).
Values belong to the compound of their own block, whether it stands above or below them.

What was measured:
[1] = test system: Amaranthus retroflexus; assay: Weeding effect in post-emergence stage (greenhouse pot spray); format: in vivo
In short: (§1)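 Fresh-weight control rate was assessed 3 weeks after post-emergence spray-tower application at doses of 500–15 g a.i./ha, triplicate. Weeds were treated at the 2–3 leaf stage, 2 weeks post-sowing, using acetone solutions with Tween 80 plus 1.5 L/ha methyl oleate emulsifiable concentrate.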

[2] = test system: Stellaria media; assay: as above; format: in vivo
In short: as §1

[3] = test system: Leptochloa chinensis; assay: Post-emergence control experiment of R configuration compound activity (weeds 4-5 leaf stage, 25 days); format: in vivo
Experimental: (§2) Experiment on weeding effect in post-emergence stage: after 3-4 weeks of sowing, the test plants were treated in the 1.5-2 leaf stage of the directly sowed rice Longyang 16, and the 4-5 leaf stage of weeds. After the application of the compounds of the present invention, the plants were cultured for 25 days in the greenhouse, and then the experimental results of the weeding were counted.

[4] = test system: Green Setaria viridis; assay: as above; format: in vivo
Experimental: as §2

[5] = test system: Abutilon theophrasti; assay: as above; format: in vivo
Experimental: as §2

[6] = test system: Digitaria sanguinalis; assay: as above; format: in vivo
Experimental: as §2

[7] = test system: weeds; assay: Actual control effects and combined effects of mixtures of active ingredients (i) and (ii), stem-leaf treatment, Gowing method; format: in vivo; settings: stem-leaf treatment, 20 days
[8] = test system: Setaria viridis; assay: Weeding effect in post-emergence stage (greenhouse pot spray); format: in vivo
In short: as §1

[9] = test system: Echinochloa crusgalli; assay: as above; format: in vivo
In short: as §1

[10] = test system: Abutilon theophrasti; assay: as above; format: in vivo
In short: as §1

[11] = test system: Digitaria sanguinalis; assay: as above; format: in vivo
In short: as §1

[12] = test system: Rice (Longyang 16); assay: Post-emergence control experiment of R configuration compound activity (directly sowed rice 1.5-2 leaf stage, 25 days); format: in vivo
Experimental: as §2
Longyang 16 is a representative and important long-grain fragrant rice in Northeast China. Long-grain fragrant rice is more sensitive to herbicides, especially to HPPD herbicides such as Mesotrione, Benzobicylon and the like, which are prone to causing phytotoxicity.

[13] = test system: Rice; assay: Transplanted rice safety evaluation and weed control effect evaluation in rice field; format: in vivo, rice (japonica rice/Indica rice); settings: Table 8, dose 60 g a.i./ha
Experimental: (§3) Transplanted rice safety evaluation and weed control effect evaluation in rice field:
In addition, the rice field soil that loaded into the 1/1,000,000 ha pot was leveled to keep water storage at 3-4 cm depth. The 3 leaf stage rice (japonica rice/Indica rice) was transplanted at 3 cm of transplanting depth the next day. The compound of the present invention was treated by the same way after 5 days of transplantation.
(§4) The fertility condition of echinochloa crusgali, scirpus juncoides, Bidens tripartita, Leptochloa chinensis, Sagittaria trifolia and Monochoria vaginalis 14 days after the treatment of the compound of the invention and the fertility condition of rice 21 days after the treatment of the compound of the invention respectively with the naked eye. Evaluate the weed control effect with 0-5 activity standard level. Many compounds show excellent activity and selectivity.

[14] = test system: Leptochloa chinensis; assay: as above; format: in vivo; settings: Table 8, dose 60 g a.i./ha
Text: as §3
(§5) Rice field soil was loaded into a 1/1,000,000 ha pot. The seeds of echinochloa crusgali, scirpus juncoides, Bidens tripartita, Sagittaria trifolia, Monochoria vaginalis and Leptochloa chinensis were sowed and gently covered with soil, then left to stand still in greenhouse in the state of 0.5-1 cm of water storage. The tuber of Sagittaria trifolia was planted in the next day or 2 days later. It was kept at 3-4 cm of water storage thereafter. The weeds were treated by dripping the WP or SC water diluents prepared according to the common preparation method of the compounds of the present invention with pipette homogeneously to achieve specified effective amount when echinochloa crusgali, scirpus juncoides, Bidens tripartita, Monochoria vaginalis and Leptochloa chinensis reached 0.5 leaf stage and Sagittaria trifolia reached the time point of primary leaf stage.
as §4

[15] = test system: Monochoria vaginalis; assay: as above; format: in vivo; settings: Table 8, dose 60 g a.i./ha
Text: as §3, §5, §4

[16] = test system: Echinochloa crusgali; assay: as above; format: in vivo; settings: Table 8, dose 60 g a.i./ha
Text: as §3, §5, §4

[17] = test system: Sagittaria trifolia; assay: as above; format: in vivo; settings: Table 8, dose 60 g a.i./ha
Text: as §3, §5, §4

SMILES: Cc1nnc(NC(=O)c2ccc(C(F)(F)F)c([S+](C)[O-])c2F)o1 (racemic) [Compound 1-2]
- Amaranthus retroflexus (activity level) ([1]; Table 2, dose 60 g a.i./ha): 4 (Level 4: growth control rate is greater than or equal to 60% and less than 85%)
- Amaranthus retroflexus (activity level) ([1]; Table 2, dose 125 g a.i./ha): 4 (Level 4: growth control rate is greater than or equal to 60% and less than 85%)
- Amaranthus retroflexus (activity level) ([1]; Table 2, dose 250 g a.i./ha): 4 (Level 4: growth control rate is greater than or equal to 60% and less than 85%)
- Amaranthus retroflexus (activity level) ([1]; Table 2, dose 500 g a.i./ha): 4 (Level 4: growth control rate is greater than or equal to 60% and less than 85%)
- Stellaria media (activity level) ([2]; Table 2, dose 60 g a.i./ha): 3 (Level 3: growth control rate is greater than or equal to 40% and less than 60%)
- Stellaria media (activity level) ([2]; Table 2, dose 125 g a.i./ha): 3 (Level 3: growth control rate is greater than or equal to 40% and less than 60%)
- Stellaria media (activity level) ([2]; Table 2, dose 250 g a.i./ha): 4 (Level 4: growth control rate is greater than or equal to 60% and less than 85%)
- Stellaria media (activity level) ([2]; Table 2, dose 500 g a.i./ha): 4 (Level 4: growth control rate is greater than or equal to 60% and less than 85%)
- Leptochloa chinensis (60 g a.i./ha) inhibition rate ([3]; 60 g a.i./ha): 0%
- Green Setaria viridis (60 g a.i./ha) inhibition rate ([4]; 60 g a.i./ha): 20%
- Ablation theophrasti (30 g a.i./ha) inhibition rate ([5]; 30 g a.i./ha): 60%
- Digitaria sanguinalis (30 g a.i./ha) inhibition rate ([6]; 30 g a.i./ha): 0%
- Control effect of (i) alone at corresponding dose ([7]; Cyperus difformis, (i) 1 g a.i./mu): 7.8%
- Control effect of (i) alone at corresponding dose ([7]; Cyperus difformis, (i) 5 g a.i./mu): 36.5%
- Control effect of (i) alone at corresponding dose ([7]; Digitaria sanguinalis, (i) 1 g a.i./mu): 18.2%
- Control effect of (i) alone at corresponding dose ([7]; Digitaria sanguinalis, (i) 2 g a.i./mu): 40.6%
- Control effect of (i) alone at corresponding dose ([7]; Digitaria sanguinalis, (i) 3 g a.i./mu): 65.3%
- Control effect of (i) alone at corresponding dose ([7]; Echinochloa phyllopogon, (i) 1 g a.i./mu): 12.6%
- Control effect of (i) alone at corresponding dose ([7]; Echinochloa phyllopogon, (i) 2 g a.i./mu): 26.8%
- Control effect of (i) alone at corresponding dose ([7]; Echinochloa phyllopogon, (i) 3 g a.i./mu): 53.7%
- Control effect of (i) alone at corresponding dose ([7]; Leptochloa chinensis, (i) 5 g a.i./mu): 6.5%
- Control effect of (i) alone at corresponding dose ([7]; Leptochloa chinensis, (i) 15 g a.i./mu): 30.6%
- Control effect of (i) alone at corresponding dose ([7]; Monochoria vaginalis, (i) 3 g a.i./mu): 7.8%
- Control effect of (i) alone at corresponding dose ([7]; Monochoria vaginalis, (i) 5 g a.i./mu): 7.8%
- Control effect of (i) alone at corresponding dose ([7]; Monochoria vaginalis, (i) 15 g a.i./mu): 30.9%
- Control effect of (i) alone at corresponding dose ([7]; Sagittaria trifolia, (i) 1 g a.i./mu): 19.7%
- Control effect of (i) alone at corresponding dose ([7]; Sagittaria trifolia, (i) 3 g a.i./mu): 50.3%
- Setaria viridis (activity level) ([8]; Table 3, dose 60 g a.i./ha): 3 (Level 3: growth control rate is greater than or equal to 40% and less than 60%)
- Echinochloa crusgah (activity level) ([9]; Table 2, dose 60 g a.i./ha): 3 (Level 3: growth control rate is greater than or equal to 40% and less than 60%)
- Echinochloa crusgah (activity level) ([9]; Table 2, dose 125 g a.i./ha): 4 (Level 4: growth control rate is greater than or equal to 60% and less than 85%)
- Echinochloa crusgah (activity level) ([9]; Table 2, dose 250 g a.i./ha): 4 (Level 4: growth control rate is greater than or equal to 60% and less than 85%)
- Echinochloa crusgah (activity level) ([9]; Table 2, dose 500 g a.i./ha): 4 (Level 4: growth control rate is greater than or equal to 60% and less than 85%)
- Echinochloa crusgali (activity level) ([9]; Table 3, dose 60 g a.i./ha): 3 (Level 3: growth control rate is greater than or equal to 40% and less than 60%)
- Abutilion theophrasti (activity level) ([10]; Table 2, dose 60 g a.i./ha): 4 (Level 4: growth control rate is greater than or equal to 60% and less than 85%)
- Abutilion theophrasti (activity level) ([10]; Table 2, dose 125 g a.i./ha): 4 (Level 4: growth control rate is greater than or equal to 60% and less than 85%)
- Abutilion theophrasti (activity level) ([10]; Table 2, dose 250 g a.i./ha): 4 (Level 4: growth control rate is greater than or equal to 60% and less than 85%)
- Abutilion theophrasti (activity level) ([10]; Table 2, dose 500 g a.i./ha): 4 (Level 4: growth control rate is greater than or equal to 60% and less than 85%)
- Abutilon theophrasti (activity level) ([10]; Table 3, dose 60 g a.i./ha): 4 (Level 4: growth control rate is greater than or equal to 60% and less than 85%)
- Digitaria sanguinalis (activity level) ([11]; Table 2, dose 60 g a.i./ha): 3 (Level 3: growth control rate is greater than or equal to 40% and less than 60%)
- Digitaria sanguinalis (activity level) ([11]; Table 2, dose 125 g a.i./ha): 3 (Level 3: growth control rate is greater than or equal to 40% and less than 60%)
- Digitaria sanguinalis (activity level) ([11]; Table 2, dose 250 g a.i./ha): 4 (Level 4: growth control rate is greater than or equal to 60% and less than 85%)
- Digitaria sanguinalis (activity level) ([11]; Table 2, dose 500 g a.i./ha): 4 (Level 4: growth control rate is greater than or equal to 60% and less than 85%)
- Digitaria sanguinahs (activity level) ([11]; Table 3, dose 60 g a.i./ha): 3 (Level 3: growth control rate is greater than or equal to 40% and less than 60%)

- Rice (Longyang 16) (250 g a.i./ha) inhibition rate ([12]; 250 g a.i./ha): 15%
- Rice (Longyang 16) (500 g a.i./ha) inhibition rate ([12]; 500 g a.i./ha): 25%
SMILES: CCC[S@+]([O-])c1c(C(F)(F)F)ccc(C(=O)Nc2nnc(C)o2)c1F [1-8 (S-configuration)]
- inhibition at 60 g/ha ([3]; Dinebra chinensis, post-emergence, read-out: Leptochloa chinensis (60 g a.i./ha) inhibition rate): 0%
- inhibition at 125 g/ha ([3]; Dinebra chinensis, post-emergence, read-out: Leptochloa chinensis (125 g a.i./ha) inhibition rate): 10%
- activity against key weed Leptochloa chinensis / key weeds, in words ([3]; in vivo): lower activity
- inhibition at 30 g/ha ([4]; Setaria viridis, post-emergence, read-out: Green Setaria viridis (30 g a.i./ha) inhibition rate): 0%
- inhibition at 60 g/ha ([4]; Setaria viridis, post-emergence, read-out: Green Setaria viridis (60 g a.i./ha) inhibition rate): 15%
- inhibition at 30 g/ha ([5]; Abutilon theophrasti, post-emergence, read-out: Ablation theophrasti (30 g a.i./ha) inhibition rate): 0%
- inhibition at 30 g/ha ([6]; Digitaria sanguinalis, post-emergence, read-out: Digitaria sanguinalis (30 g a.i./ha) inhibition rate): 0%
- safety on rice (Longyang 16), in words ([12]; in vivo): not safe

SMILES: Cc1nnc(NC(=O)c2ccc(C(F)(F)F)c([S@+]([O-])CCCCl)c2F)o1 [1-414 (R-configuration)]
- Rice (safety level) [13]: 0 (Level 0: growth control rate is less than 5%)
- Setaria viridis (activity level) ([8]; Table 3, dose 500 g a.i./ha): 5 (Level 5: growth control rate is above 85%)
- Echinochloa crusgali (activity level) ([9]; Table 3, dose 500 g a.i./ha): 5 (Level 5: growth control rate is above 85%)
- Digitaria sanguinahs (activity level) ([11]; Table 3, dose 500 g a.i./ha): 5 (Level 5: growth control rate is above 85%)
- Leptochloa chinensis (activity level) [14]: 5 (Level 5: growth control rate is above 85%)
- Monochoria vaginalis (activity level) [15]: 5 (Level 5: growth control rate is above 85%)
- Echinochloa crusgali (activity level) [16]: 5 (Level 5: growth control rate is above 85%)
- Sagittaria trifolia (activity level) [17]: 5 (Level 5: growth control rate is above 85%)
